Like-named read-outs stand apart in the source and are kept apart here.
Experiments:
human EP2 receptor = molecular target: T1, human EP2 receptor (Homo sapiens, UniProt P43116); assay: Binding ability to human EP receptors ([3H]PGE2 displacement), EP2
T1 construct: expressed in transfected cells
Procedure, shortened: (§1)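 Membranes from cells stably expressing human EP2, EP3 or EP4 incubated to equilibrium with [3H]PGE2 and compound at 0.1 to 10 000 nM. Non-specific binding defined with 10 uM PGE2; bound label separated by vacuum filtration and quantified by scintillation counting.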

human EP4 receptor = molecular target: T2, human EP4 receptor (Homo sapiens, UniProt P35408); assay: Binding ability to human EP receptors ([3H]PGE2 displacement), EP4; conditions: membranes expressing human EP4; [3H]PGE2 1 nM; Cheng-Prusoff; read-out: pKi (M) EP4 (converted)
T2 construct: expressed in transfected cells
T2 sequence (P35408 whole entry): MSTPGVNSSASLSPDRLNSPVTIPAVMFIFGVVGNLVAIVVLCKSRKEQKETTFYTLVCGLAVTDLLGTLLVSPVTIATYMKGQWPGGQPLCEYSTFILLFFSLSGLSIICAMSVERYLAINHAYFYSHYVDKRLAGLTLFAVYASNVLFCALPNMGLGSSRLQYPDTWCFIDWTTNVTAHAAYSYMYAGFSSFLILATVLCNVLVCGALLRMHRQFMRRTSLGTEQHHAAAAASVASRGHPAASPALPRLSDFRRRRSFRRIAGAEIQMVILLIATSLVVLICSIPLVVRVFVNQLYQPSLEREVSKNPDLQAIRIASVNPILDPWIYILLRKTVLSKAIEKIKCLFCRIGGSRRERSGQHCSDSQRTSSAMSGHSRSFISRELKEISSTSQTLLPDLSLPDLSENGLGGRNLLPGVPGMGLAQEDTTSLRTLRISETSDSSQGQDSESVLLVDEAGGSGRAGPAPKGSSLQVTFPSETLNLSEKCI
Procedure, shortened: as §1

human EP3 receptor = molecular target: T3, human EP3 receptor (Homo sapiens, UniProt P43115); assay: Binding ability to human EP receptors ([3H]PGE2 displacement), EP3; conditions: membranes expressing human EP3; [3H]PGE2 2.5 nM; Cheng-Prusoff; read-out: pKi (M) EP3 (converted)
T3 construct: expressed in transfected cells
T3 sequence (P43115 1-390): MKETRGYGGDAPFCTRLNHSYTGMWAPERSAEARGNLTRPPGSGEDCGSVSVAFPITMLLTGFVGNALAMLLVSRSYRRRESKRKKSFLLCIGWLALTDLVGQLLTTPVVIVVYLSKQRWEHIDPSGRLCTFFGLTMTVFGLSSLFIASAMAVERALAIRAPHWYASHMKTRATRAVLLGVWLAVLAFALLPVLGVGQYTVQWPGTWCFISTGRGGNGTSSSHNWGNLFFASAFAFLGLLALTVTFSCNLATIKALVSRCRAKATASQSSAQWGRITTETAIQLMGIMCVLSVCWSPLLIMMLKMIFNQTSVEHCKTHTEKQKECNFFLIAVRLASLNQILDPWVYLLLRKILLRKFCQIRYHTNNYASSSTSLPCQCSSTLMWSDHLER
Procedure, shortened: as §1

[1] = molecular target: T4, human EP2 prostanoid receptors (Homo sapiens, UniProt P43116); assay: Agonist activity at recombinant human EP2 prostanoid receptors (cAMP in HEK-293 clones); assay type: cell-based; conditions: for activity (EP2 part): functional classification at EP2
T4 construct: expressed in transfected cells; host or cells: HEK-293
T4 sequence (P43116 whole entry): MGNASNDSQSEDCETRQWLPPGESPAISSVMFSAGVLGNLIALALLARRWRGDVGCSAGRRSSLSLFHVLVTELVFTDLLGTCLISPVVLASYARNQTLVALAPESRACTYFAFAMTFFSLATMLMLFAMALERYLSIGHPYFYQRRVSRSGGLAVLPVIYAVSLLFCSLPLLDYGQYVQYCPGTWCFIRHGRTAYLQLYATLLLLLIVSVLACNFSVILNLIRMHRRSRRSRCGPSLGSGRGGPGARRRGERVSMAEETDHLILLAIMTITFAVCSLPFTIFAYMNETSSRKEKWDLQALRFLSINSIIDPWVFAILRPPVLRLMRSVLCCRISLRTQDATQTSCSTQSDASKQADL

[2] = membranes expressing human EP2, [3H]PGE2 3 nM, Cheng-Prusoff, read-out: pKi (M) EP2 (converted)
[3] = HEK-293 stably transfected with human EP2, cAMP accumulation, read-out: pEC50 EP2 (converted)

T1 sequence (P43116 whole entry): as above

Ki (human EP2 receptor; [2]) [M]	Ki (human EP4 receptor) [M]	Ki (human EP3 receptor) [M]	EC50 [1, 3] [µM]	activity (EP2 part) [1]	Ki (human EP2 receptor) [M]	EC50 [1] [µM]	SMILES
< 1e-07	> 1e-05	> 1e-05	< 0.1	EP2 Agonist			O=C(Nc1cccc(Cc2nnn[nH]2)c1)c1cccc(-c2ccc(Cl)cc2)n1 [Compound 95, 6-(4-Chloro-phenyl)-pyridine-2-carboxylic acid [3-(1H-tetrazol-5ylmethyl)-phenyl]-amide]
< 1e-06	> 1e-05	> 1e-05	< 1	EP2 Agonist			O=C(Nc1ccc2sc(C(=O)O)cc2c1)c1ccc(-c2ccccc2)o1 [Compound 97, 5-[(5-Phenyl-furan-2-carbonyl)-amino]-benzo[b]thiophene-2-carboxylic acid]
< 1e-06	> 1e-05	> 1e-05	< 1	EP2 Agonist			CC/C(=C\c1cccc(NC(=O)c2ccc(-c3ccccc3)o2)c1)C(=O)O [Compound 98, 2-{3-[(5-Phenyl-furan-2-carbonyl)-amino]-benzylidene}-butyric acid]
< 1e-07	< 1e-05	> 1e-05	< 0.1	EP2 Agonist			O=C(O)/C=C/c1cccc(NC(=O)c2ccc(-c3cccc(F)c3)o2)c1 [Compound 100, 3-(3-{[5-(3-Fluoro-phenyl)-furan-2-carbonyl]-amino}-phenyl)-acrylic acid]
< 1e-07	> 1e-05	> 1e-05	< 0.1	EP2 Agonist			O=C(O)/C=C/c1cccc(NC(=O)c2ccc(-c3ccc4c(c3)OCO4)o2)c1 [Compound 101, 3-{3-[(5-Benzo[1,3]dioxol-5-yl-furan-2-carbonyl)-amino]-phenyl}-acrylic acid]
< 1e-07	> 1e-05	> 1e-05	< 0.1	EP2 Agonist			O=C(O)/C=C/c1cccc(NC(=O)c2cc(-c3ccccc3)ccc2F)c1 [Compound 107, 3-{3-[(4-Fluoro-biphenyl-3-carbonyl)-amino]-phenyl}-acrylic acid]
< 1e-07	> 1e-05	> 1e-05	< 0.1	EP2 Agonist			O=C(O)/C=C/c1cccc(NC(=O)c2cc(-c3cccc(F)c3)ccc2F)c1 [Compound 108, 3-{3-[(4,3′-Difluoro-biphenyl-3-carbonyl)-amino]-phenyl}-acrylic acid]
< 1e-07	> 1e-05	> 1e-05	< 0.1	EP2 Agonist			O=C(O)/C=C/c1cccc(NC(=O)c2cccc(-c3cccc(F)c3)n2)c1 [Compound 110, 3-(3-{[6-(3-Fluoro-phenyl)-pyridine-2-carbonyl]-amino}-phenyl)-acrylic acid]
< 1e-07	> 1e-05	> 1e-05	< 0.1	EP2 Agonist			O=C(O)Cc1cccc(NC(=O)c2cc(-c3cccc(F)c3)ccc2F)c1 [Compound 111]
< 1e-07	> 1e-05	> 1e-05	< 0.1	EP2 Agonist			O=C(O)/C=C/c1cccc(NC(=O)c2cc(-c3ccc(F)cc3)ccc2F)c1 [Compound 112, 3-{3-[(4,4′-Difluoro-biphenyl-3-carbonyl)-amino]-phenyl}-acrylic acid]
< 1e-07	> 1e-05	> 1e-05	< 0.1	EP2 Agonist			O=C(O)Cc1cccc(NC(=O)c2cccc(-c3cccc(F)c3)n2)c1 [Compound 113, (3-{[6-(3-Fluoro-phenyl)-pyridine-2-carbonyl]-amino}-phenyl)-acetic acid]
< 1e-07	> 1e-05	> 1e-05	< 0.1	EP2 Agonist			O=C(O)/C=C/c1cccc(NC(=O)c2csc(-c3ccccc3)n2)c1 [Compound 115, 3-{3-[(2-Phenyl-thiazole-4-carbonyl)-amino]-phenyl}-acrylic acid]
< 1e-07	> 1e-05	> 1e-05	< 0.1	EP2 Agonist			O=C(O)/C=C/c1cccc(NC(=O)c2csc(-c3cccc(F)c3)n2)c1 [Compound 116, 3-(3-{[2-(3-Fluoro-phenyl)-thiazole-4-carbonyl]-amino}-phenyl)-acrylic acid]
< 1e-06	> 1e-05	> 1e-05	< 10	EP2 Agonist			O=C(O)Cc1cccc(C(=O)Nc2cccc(-c3ccccc3)c2)c1 [Compound 117, [3-(Biphenyl-3-ylcarbamoyl)-phenyl]-acetic acid]
< 1e-06	> 1e-05	> 1e-05	< 0.1	EP2 Agonist			Cn1c(C(=O)O)cc2cc(NC(=O)c3ccc(-c4ccccc4)o3)ccc21 [Compound 118, 1-Methyl-5-[(5-phenyl-furan-2-carbonyl)-amino]-1H-indole-2-carboxylic acid]
< 1e-05	> 1e-05	> 1e-05	< 1	EP2 Agonist			O=C(O)/C=C/c1cccc(CC(=O)c2ccc(-c3ccccc3)o2)c1 [Compound 120, 3-{3-[2-Oxo-2-(5-phenyl-furan-2-yl)-ethyl]-phenyl}-acrylic acid]
< 1e-06	> 1e-05	> 1e-05	< 1	EP2 Agonist			O=C(O)/C=C/c1cccc(OCc2csc(-c3ccccc3)n2)c1 [Compound 121, 3-[3-(2-Phenyl-thiazol-4-ylmethoxy)-phenyl]-acrylic acid]
< 1e-07	> 1e-05	> 1e-05	< 0.1	EP2 Agonist			O=C(O)Cc1cccc(NC(=O)c2ccc(-c3cc(F)cc(F)c3)o2)c1 [Compound 127, (3-{[5-(3,5-Difluoro-phenyl)-furan-2-carbonyl]-amino}-phenyl)-acetic acid]
< 1e-06	> 1e-05	> 1e-05	< 0.1	EP2 Agonist			O=C(O)Cc1cccc(NC(=O)c2ccc(-c3cccc(F)c3)o2)c1 [Compound 128, (3-{[5-(3-fluoro-phenyl)-furan-2-carbonyl]-amino}-phenyl)-acetic acid]
< 1e-07	> 1e-05	> 1e-05	< 0.1	EP2 Agonist			O=C(O)/C=C/c1cccc(NC(=O)c2cccc(-c3cc(Cl)cc(Cl)c3)n2)c1 [Compound 132, 3-(3-{[6-(3,5-Dichloro-phenyl)-pyridine-2-carbonyl]-amino}-phenyl)-acrylic acid]
< 1e-07	> 1e-05	> 1e-05	< 0.1	EP2 Agonist			O=C(O)CCc1cccc(NC(=O)c2cccc(-c3cc(Cl)cc(Cl)c3)n2)c1 [Compound 134, 3-(3-{[6-(3,5-Dichloro-phenyl)-pyridine-2-carbonyl]-amino}-phenyl)-propionic acid]
< 1e-06	> 1e-05	> 1e-05	< 1	EP2 Agonist			O=C(Nc1ccc2[nH]c(C(=O)O)cc2c1)c1cccc(-c2cc(Cl)cc(Cl)c2)n1 [Compound 135, 5-{[6-(3,5-Dichloro-phenyl)-pyridine-2-carbonyl]-amino}-1H-indole-2-carboxylic acid]
	< 1e-06	> 1e-05		EP2 Agonist	< 1e-07	< 0.1	O=C(O)/C=C/c1cccc(NC(=O)c2cccc(-c3cccc(Cl)c3)n2)c1 [Compound 137, 3-(3-{[6-(3-Chloro-phenyl)-pyridine-2-carbonyl]-amino}-phenyl)-acrylic acid]
< 1e-07	> 1e-05	> 1e-05	< 0.1	EP2 Agonist			O=C(O)COc1cccc(NC(=O)c2cc(-c3cccc(Cl)c3)ccc2F)c1 [Compound 140, {3-[(3′-Chloro-4-fluoro-biphenyl-3-carbonyl)-amino]-phenoxy}-acetic acid]
< 1e-07	> 1e-05	> 1e-05	< 0.1	EP2 Agonist			O=C(O)/C=C/c1cccc(NC(=O)c2cc(-c3cccc(Cl)c3)ccc2F)c1 [Compound 142, 3-{3-[(3′-Chloro-4-fluoro-biphenyl-3-carbonyl)-amino]-phenyl}-acrylic acid]
< 1e-07	> 1e-05	> 1e-05	< 0.1	EP2 Agonist			O=C(O)COc1cccc(NC(=O)c2cc(-c3cc(Cl)cc(Cl)c3)ccc2F)c1 [Compound 143, {3-[(3′,5′-Dichloro-4-fluoro-biphenyl-3-carbonyl)-amino]-phenoxy}-acetic acid]

— US7326732B2, “EP2 receptor agonists” (Pharmagene Laboratories Limited, priority 2004, dated 2008)
